Laboratory results: patent publication US9802902B2, “Antifungal compound” (priority 2012, dated 2017)

Key:
C. albicans keratitis = test: Contact lens-associated C. albicans keratitis model in mouse; type: in vivo; conditions: 1000 μg/mL topical eye drops; for corneal counts of C. albicans: 6 eyeballs homogenized; for clinical score (slit lamp, grade 0-4): after treatment, ± standard deviation
Source text: 8-week-old adult C57BL/6 mice (18-22 g) were used for animal studies. All mice eyes were examined for absence of ocular pathology before experiments were initiated. The experimental protocol was approved by the Institutional Animal Care and Use Committee of Biological Resource Centre, Agency for Science, Technology and Research (A*STAR), Singapore.
The black mouse keratitis model was established by employing contact lens biofilm infection, which is described as follows. The mice were anesthetized by ketamine (150 mg/kg) and xylazine ([…]) via intraperitoneal injection (I.P.). Additional topical anesthetic in the form of 0.5% tetracaine hydrochloride eye drops (Bausch & Lomb, Tampa, Fla.) was also administered.
A total of 45 mice were used in this study. A 1-mm filter paper disc moistened with 99% 1-heptanol (Sigma-Aldrich, Lausanne, Switzerland) was placed on the center of the cornea for 40 seconds. The corneal epithelium was traumatically wiped out and the eyes were rinsed with PBS to remove any remaining traces of 1-heptanol. A 2 mm-diameter punch from the contact lense with C. albicans biofilm was then placed on the denuded cornea surface. The contact lenses were kept inside the eyes by closing the eye lids with silk sutures. The C. albicans cells were grown on the eyeball 18 hours after inoculation; eye ulcer with a leathery, tough, raised surface was observed. A disease grading from 0 (no disease) to 4 (severe disease) was established for evaluating treatment efficacy (see Table 1 below). The mice were immune suppressed by subcutaneous injection of cyclophosphamide (Sigma-Aldrich, […]).
To investigate the potential application of these two compounds in fungi keratitis treatment, C. albicans keratitis model was established using mouse. The contact lenses with C. albicans biofilm were kept inside the mice eyes by closing the lids with silk sutures. 18 hours after inoculation, the C. albicans cells were grown on the eyeball. Eye ulcer with a leathery, tough, raised surface was observed. The animals were randomly treated with 5 topical eye drop solutions: saline solution (control), 1000 μg/mL of PIM-45, 1000 μg/mL of IBN-1, 1000 μg/mL of amphotericin B, and 1000 μg/mL of fluconazole. Eye drops (20 μl each) were administered to the mice every 5 minutes during the first hour and every 30 minutes during the next 7 hours. After a pause of 16 hours, eye drops were administered at hourly intervals for another 8 hours. All mice were sacrificed 16 hours after the administration of the last eye drop. The treated eyeballs were collected immediately; three eyeballs from each group were collected for histology, and the remaining 6 eyeballs were homogenized for quantitative fungal recovery study. The fixed eyeballs were embedded in paraffin, sectioned and stained with Grocott's methenamine silver by standard protocol.

[1] = test system: C. albicans biofilms supported on contact lenses; test: Biofilm susceptibility (in vitro keratitis model treatment); type: cell-based, Candida albicans
Procedure: The contact lenses were washed with PBS and immersed in YM broth overnight before they were punched into smaller pieces of 2 mm in diameter. To grow C. albicans biofilms, the lenses were placed in 6-well tissue culture plates with 4 mL of yeast suspension (10^7 CFU/mL) and incubated for 3 hours at 22° C. The contact lenses were gently washed with PBS to remove non-adherent yeast cells and immersed in YM broth for 48 hours at 22° C. with shaking at 100 rpm. Biofilms were quantified using direct plate counting. The yeast cells on contact lens were detached and dispersed in PBS by ultrasonication for 3 minutes. After making 10-fold dilutions, 20-μL sampling aliquots were plated on solid Lysogeny broth (LB) plate and incubated at 22° C. for 48 hours before the colony number was counted for determination of surviving CFU. Data from triplicate plate counts were averaged.
The C. albicans biofilms supported on contact lenses were transferred to fungicidal agent-containing PBS, and incubated at 22° C. for 24 hours. The biofilms were ultrasonicated for 3 minutes, and then serially diluted in PBS. The viable yeast cells were enumerated as described above.

Row | Structure (SMILES) | hyphal invasion into cornea (histology) (C. albicans keratitis) | corneal counts of C. albicans (C. albicans keratitis) [lg CFU/eye] | clinical score (slit lamp, grade 0-4) (C. albicans keratitis) | effective concentration in killing biofilm-grown yeast cells ([1]; C. albicans biofilm on contact lens, PBS, 22° C., 24 hours) [ppm] | destruction of C. albicans biofilm ([1]; at 250 ppm)
1 | C[C@@H]1[C@H](O)[C@@H](C)/C=C/C=C/C=C/C=C/C=C/C=C/C=C/[C@H](O[C@@H]2O[C@H](C)[C@@H](O)[C@H](N)[C@@H]2O)C[C@@H]2O[C@](O)(C[C@@H](O)C[C@@H](O)[C@H](O)CC[C@@H](O)C[C@@H](O)CC(=O)O[C@H]1C)C[C@H](O)[C@H]2C(=O)O [amphotericin B] | reduced the maximal depth of hyphal invasion into cornea | 3.3 | 2.2±0.4 | 250 | 
2 | OC(Cn1cncn1)(Cn1cncn1)c1ccc(F)cc1F [fluconazole] | fungal hyphae extended through the epithelium and into the anterior stroma | 5.1 | 3.5±0.5 |  | only slightly destroyed
